The target in assay [1] is T1, mouse CD73 (EMT6 breast cancer cells) (Mus musculus, UniProt Q61503).
T1 construct: mouse EMT6 breast cancer cells which express endogenous CD73 on their surface; host or cells: EMT6 (mouse breast cancer)
T1 sequence (Q61503 29-551): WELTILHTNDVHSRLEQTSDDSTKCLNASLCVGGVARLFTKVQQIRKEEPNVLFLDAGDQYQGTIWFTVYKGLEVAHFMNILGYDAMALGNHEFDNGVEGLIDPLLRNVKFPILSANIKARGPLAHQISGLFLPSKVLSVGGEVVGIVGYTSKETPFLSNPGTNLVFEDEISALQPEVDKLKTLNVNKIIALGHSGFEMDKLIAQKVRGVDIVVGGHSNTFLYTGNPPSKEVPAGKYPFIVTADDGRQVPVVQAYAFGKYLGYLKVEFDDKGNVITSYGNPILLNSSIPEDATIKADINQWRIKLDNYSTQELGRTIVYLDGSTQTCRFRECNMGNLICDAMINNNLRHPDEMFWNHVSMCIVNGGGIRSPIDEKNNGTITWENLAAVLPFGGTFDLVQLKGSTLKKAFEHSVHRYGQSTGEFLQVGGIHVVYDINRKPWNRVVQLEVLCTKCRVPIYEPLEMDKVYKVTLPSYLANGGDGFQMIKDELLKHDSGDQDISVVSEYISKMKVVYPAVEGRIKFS
Put plainly: Cellular CD73 assay in mouse EMT6 breast cancer cells, adenosine by LC-MS/MS. Format: cell-based. The settings on record: PBS/3% BSA, adenosine in supernatant. On the procedure: (§1) Activity of cell bound CD73 was assessed by direct measurement of adenosine produced from AMP using liquid chromatography with tandem mass-spectrometry (LC-MS/MS). Human NSCLC H1568 cells expressing endogenous CD73 on their surface were obtained from ATCC(CRL-5876) and cultured in growth medium (RPMI, 10% FBS, 1 mM L-glutamine, 100 mL penicillin-streptomycin). Cells were seeded onto 96-well tissue culture plates at 10,000 cells/well and allowed to adhere for 20-24 h. 500× serial compound dilutions were prepared in DMSO in a 12-point 3-fold titration, and then diluted 1:50 into RPMI supplemented with 10% human plasma (BioIVT, cat #HMPLEDTA5) generating 10× compound dilutions. Growth medium was removed from the cells and replaced with […] of RPMI/10% human plasma. 10 mL of 10× compound dilutions were then added to the cells and incubated for 15 min at 37° C., 5% CO2. Then 10 mL of 100 mM AMP/50 mM EHNA (Sigma-Aldrich, A1752 and E114) were added to a final concentration of 10 mM AMP/5 mM EHNA. After 1 h incubation at 37° C., 5% CO2, 80 mL of supernatant was removed from the cells and transferred to a deep well polypropylene 96-well plate (Costar #3961) prefilled with 240 mL of organic solvent composed of methanol:acetonitrile (1:1, v/v) with 0.1% formic acid, plus 150 ng/mL of Adenosine-15N and AMP-13C as internal standards. Amount of unlabeled adenosine and AMP in each well was measured on AB Sciex API 4000 QTrap with Shimadzu LC-30AD UPLC system. Limits of adenosine and AMP detection were 10-10,000 nM and 20-10,000 nM, respectively. The IC50 values were determined based on amount of adenosine in the supernatant using four parameter non-linear regression curve fit. DMSO treated cells produced 3000-4000 nM adenosine under these conditions with negligible variability on the same day assays. Small amount of adenosine generated from AMP in the absence of cells (less than 100 nM) was used as 100% inhibition control.
To determine activity of compounds on mouse CD73 mouse EMT6 breast cancer cells which express endogenous CD73 on their surface (ATCC, CRL-2755) were used. […]

The next assay deals with T2, CD73 (Homo sapiens, UniProt P21589).
T2 sequence (P21589 27-549): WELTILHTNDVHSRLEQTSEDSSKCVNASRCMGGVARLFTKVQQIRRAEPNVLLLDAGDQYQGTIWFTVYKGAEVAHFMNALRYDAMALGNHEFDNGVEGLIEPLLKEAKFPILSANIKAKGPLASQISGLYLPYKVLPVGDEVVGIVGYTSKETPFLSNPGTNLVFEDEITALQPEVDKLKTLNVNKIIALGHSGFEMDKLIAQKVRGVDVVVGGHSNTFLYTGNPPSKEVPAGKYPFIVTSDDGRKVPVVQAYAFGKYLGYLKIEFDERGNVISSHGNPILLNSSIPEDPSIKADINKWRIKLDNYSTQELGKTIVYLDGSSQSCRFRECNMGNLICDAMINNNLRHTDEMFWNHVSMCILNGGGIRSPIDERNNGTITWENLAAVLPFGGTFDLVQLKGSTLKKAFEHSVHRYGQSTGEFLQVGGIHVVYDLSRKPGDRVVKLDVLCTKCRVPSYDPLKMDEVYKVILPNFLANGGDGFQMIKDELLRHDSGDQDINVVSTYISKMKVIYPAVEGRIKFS
The assay is described as follows: CD73 biochemical assay, Malachite Green detection of AMP hydrolysis. As to conditions: CD73 320 pM, AMP 15 μM, Malachite Green readout. The procedure, abridged:
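Human CD73 (0.3208 nM, i.e. 320 pM) preincubated 15 min RT with compounds (10-point ½-log titration from 100 μM, duplicates) in Tris pH 7.4, 5 mM MgCl2, Brij-35, BSA; 15 μM AMP added, 10 min RT. Phosphate read by Malachite Green absorbance; IC50 determined.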

In assay [2] the target is T3, cell bound CD73 on Human NSCLC H1568 cells (Homo sapiens, UniProt P21589).
T3 construct: Human NSCLC H1568 cells expressing endogenous CD73 on their surface; host or cells: H1568 (human NSCLC)
T3 sequence (P21589 27-549): T2 sequence (P21589 27-549)
The assay is described as follows: Cellular CD73 assay in H1568 cells, adenosine produced from AMP by LC-MS/MS. Format: cell-based. The settings on record: RPMI/10% human plasma, 1 h with AMP/EHNA, adenosine in supernatant. How it is done:
as §1, with “control. […]” for “control.”

Each structure is given as a SMILES string.

These results are taken from patent publication US12544391B2, “CD73 inhibitors” (ORIC Pharmaceuticals, Inc., priority 2019, dated 2026).

In the case of `COC[C@](COCc1nn[nH]n1)(OC[C@H]1O[C@@H](c2ccc3c(NC4CCCC4)nc(Cl)nn23)[C@H](O)[C@@H]1O)P(=O)(O)O` (single isomer, unassigned) [Example 9], the EC50 in assay [1] and in assay [2] was at most 0.5 nM in each case. Also, at CD73, the IC50 (as a rule, the concentration needed to halve the response being measured) is at most 0.5 nM. As for `O=P(O)(O)[C@@](CO)(COCc1nn[nH]n1)OC[C@H]1O[C@@H](c2ccc3c(NC4CCCC4)nc(Cl)nn23)[C@H](O)[C@@H]1O` [Example 15, ((S)-1-((2H-Tetrazol-5-yl)methoxy)-2-(((2R,3S,4R,5S)-5-(2-chloro-4-(cyclopentylamino)pyrrolo[2,1-f][1,2,4]triazin-7-yl)-3,4-dihydroxytetrahydrofuran-2-yl)methoxy)-3-hydroxypropan-2-yl)phosphonic acid], the values for the EC50 in assay [1] and in assay [2] were 1 to 100 nM and 0.5 to 1 nM, respectively. The same molecule had a half-inhibitory concentration (IC50) at CD73 of at most 0.5 nM. As to `O=P(O)(O)[C@](CO)(COCc1nn[nH]n1)OC[C@H]1O[C@@H](c2ccc3c(NCC4CCCC4)nc(Cl)nn23)[C@H](O)[C@@H]1O` [Example 48, ((R)-1-((2H-tetrazol-5-yl)methoxy)-2-(((2R,3S,4R,5S)-5-(2-chloro-4-((cyclopentylmethyl)amino)pyrrolo[2,1-f][1,2,4]triazin-7-yl)-3,4-dihydroxytetrahydrofuran-2-yl)methoxy)-3-hydroxypropan-2-yl)phosphonic acid], the IC50 against CD73 lay within 1 to 100 nM.

As for `O=P(O)(O)[C@@](CO)(COCc1nn[nH]n1)OC[C@H]1O[C@@H](c2ccc3c(NCC4CC4)nc(Cl)nn23)[C@H](O)[C@@H]1O` [Example 49, ((S)-1-((2H-tetrazol-5-yl)methoxy)-2-(((2R,3S,4R,5S)-5-(2-chloro-4-((cyclopropylmethyl)amino)pyrrolo[2,1-f][1,2,4]triazin-7-yl)-3,4-dihydroxytetrahydrofuran-2-yl)methoxy)-3-hydroxypropan-2-yl)phosphonic acid], the IC50 against CD73 is at most 0.5 nM. The same measure, in the same setting: then `O=P(O)(O)[C@](CO)(COCc1nn[nH]n1)OC[C@H]1O[C@@H](c2ccc3c(NC4CCC4)nc(Cl)nn23)[C@H](O)[C@@H]1O` [Example 50, ((R)-1-((2H-tetrazol-5-yl)methoxy)-2-(((2R,3S,4R,5S)-5-(2-chloro-4-(cyclobutylamino)pyrrolo[2,1-f][1,2,4]triazin-7-yl)-3,4-dihydroxytetrahydrofuran-2-yl)methoxy)-3-hydroxypropan-2-yl)phosphonic acid], with 0.5 to 1 nM.

For the molecule `O=P(O)(O)[C@@](CO)(COCc1nn[nH]n1)OC[C@H]1O[C@@H](c2ccc3c(NC4CCC4)nc(Cl)nn23)[C@H](O)[C@@H]1O` [Example 51, ((S)-1-((2H-tetrazol-5-yl)methoxy)-2-(((2R,3S,4R,5S)-5-(2-chloro-4-(cyclobutylamino)pyrrolo[2,1-f][1,2,4]triazin-7-yl)-3,4-dihydroxytetrahydrofuran-2-yl)methoxy)-3-hydroxypropan-2-yl)phosphonic acid], the EC50 (usually the concentration that produces a half-maximal response) in assay [1] was 0.5 to 1 nM; in assay [2] it was at most 0.5 nM. The same molecule gave an IC50 against CD73 of at most 0.5 nM. With `O=P(O)(O)[C@@](CO)(COCc1nn[nH]n1)OC[C@H]1O[C@@H](c2ccc3c(NCC4CCC4)nc(Cl)nn23)[C@H](O)[C@@H]1O` [Example 52, ((S)-1-((2H-tetrazol-5-yl)methoxy)-2-(((2R,3S,4R,5S)-5-(2-chloro-4-((cyclobutylmethyl)amino)pyrrolo[2,1-f][1,2,4]triazin-7-yl)-3,4-dihydroxytetrahydrofuran-2-yl)methoxy)-3-hydroxypropan-2-yl)phosphonic acid], the IC50 on CD73 is at most 0.5 nM.

For `O=P(O)(O)[C@](CO)(COCc1nn[nH]n1)OC[C@H]1O[C@@H](c2ccc3c(NCC4CCC4)nc(Cl)nn23)[C@H](O)[C@@H]1O` [Example 53, ((R)-1-((2H-tetrazol-5-yl)methoxy)-2-(((2R,3S,4R,5S)-5-(2-chloro-4-((cyclobutylmethyl)amino)pyrrolo[2,1-f][1,2,4]triazin-7-yl)-3,4-dihydroxytetrahydrofuran-2-yl)methoxy)-3-hydroxypropan-2-yl)phosphonic acid], on CD73, the IC50 lay within 1 to 100 nM. On the same count and under the same terms, then `O=P(O)(O)[C@](CO)(COCc1nn[nH]n1)OC[C@H]1O[C@@H](c2ccc3c(NCC4CC4)nc(Cl)nn23)[C@H](O)[C@@H]1O` [Example 54, ((R)-1-((2H-tetrazol-5-yl)methoxy)-2-(((2R,3S,4R,5S)-5-(2-chloro-4-((cyclopropylmethyl)amino)pyrrolo[2,1-f][1,2,4]triazin-7-yl)-3,4-dihydroxytetrahydrofuran-2-yl)methoxy)-3-hydroxypropan-2-yl)phosphonic acid], with 1 to 100 nM; and `[2H]C([2H])([2H])OC[C@](COCc1nn[nH]n1)(OC[C@H]1O[C@@H](c2ccc3c(NC4CCCC4)nc(Cl)nn23)[C@H](O)[C@@H]1O)P(=O)(O)O` [Example 55, ((S)-1-((2H-tetrazol-5-yl)methoxy)-2-(((2R,3S,4R,5S)-5-(2-chloro-4-(cyclopentylamino)pyrrolo[2,1-f][1,2,4]triazin-7-yl)-3,4-dihydroxytetrahydrofuran-2-yl)methoxy)-3-(methoxy-d3)propan-2-yl)phosphonic acid], with at most 0.5 nM.

`COCC(CO)(OC[C@H]1O[C@@H](c2cnn3c(NC4CCCC4)cc(Cl)nc23)[C@H](O)[C@@H]1O)P(=O)(O)O` (stereo partly drawn) [Example 56, (2-(((2R,3S,4R,5S)-5-(5-chloro-7-(cyclopentylamino)pyrazolo[1,5-a]pyrimidin-3-yl)-3,4-dihydroxytetrahydrofuran-2-yl)methoxy)-1-hydroxy-3-methoxypropan-2-yl)phosphonic acid] had an IC50 against CD73 of 1 to 100 nM. Molecule `COCC(COCc1nn[nH]n1)(OC[C@H]1O[C@@H](c2cnn3c(NC4CCCC4)cc(Cl)nc23)[C@H](O)[C@@H]1O)P(=O)(O)O` (stereo partly drawn) [Example 57, (1-((2H-tetrazol-5-yl)methoxy)-2-(((2R,3S,4R,5S)-5-(5-chloro-7-(cyclopentylamino)pyrazolo[1,5-a]pyrimidin-3-yl)-3,4-dihydroxytetrahydrofuran-2-yl)methoxy)-3-methoxypropan-2-yl)phosphonic acid] yielded an IC50 on CD73 of at most 0.5 nM.
